Assays:
E. coli hinT = target: T1, E. coli hinT (Escherichia coli, UniProt P0ACE7); experiment: 31P NMR phosphoramidase assay of purified protein; assay type: biochemical; settings: 10 mM substrate, pH 7.2, 22° C.
T1 sequence (P0ACE7 1-119): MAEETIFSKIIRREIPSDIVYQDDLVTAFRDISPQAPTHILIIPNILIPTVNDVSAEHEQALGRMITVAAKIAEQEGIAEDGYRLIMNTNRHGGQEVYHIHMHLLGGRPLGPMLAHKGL
Description: (§1) Phosphoramidase activity in cell lysates was measured by the ^1H-decoupling mode of phosphorus-31 NMR spectroscopy (Varian VAC-300 spectrometer), which can clearly distinguish the substrate, AMP-NH2, and the product, adenosine 5′-monophosphate (AMP). NMR spectrometry is suitable for quantitation by integration of the area under the peak, which is proportional to the amount of nuclei present. The relative ratio of peak areas can be used to calculate the amount of turnover corrected based on a standard curve.
(§2) Cell lysates from E. coli Tuner(DE3)pLacI cells (Novagen) were obtained by treatment with lysozyme (1 mg/ml) and the DNA was precipitated by protamine sulfate followed by centrifugation to remove cell debris. The supernatant was dialyzed extensively against Buffer A (20 mM Tris (pH 7.0); 1 mM EDTA; 1 mM DTT, 0.01 mM PMSF) to remove cellular phosphates and nucleotides. Phosphate free cell lysates (0.75 mg total protein) were incubated with 5 mM AMP-NH2 in 0.5 ml reaction buffer (0.5 mM MgCl2, 20 mM HEPES (pH 7.2)) at 37° C. for intervals of 15 min, 30 min, and 12 h. The reactions were terminated by snap freezing in a dry ice/acetone slush bath and lyophilized for 5 h. The samples were then dissolved in NMR buffer (600 μL, 50 mM EDTA, 20 mM HEPES (pH 7.2), and 1 mM TMP (trimethylphosphate, internal standard)) and the insoluble portion was spun down by centrifugation at 12,500×g for 5 min. A ^31P NMR spectrum was then collected for the supernatant. For the low pH control experiment, 10 mM AMP-NH2 in reaction buffer (500 μL, pH 2.0) was incubated at 37° C. for 12 h and the 31p signal was detected under the same conditions.
(§3) Five recombinant purified proteins were tested with three commercial available compounds (Sigma): AMP-NH2, adenosine 5′-monophosphomorpholidate (AMP-Mor), and guanosine 5′-monophosphomorpholidate (GMP-Mor) (FIG. 1). The compounds (10 mM) were incubated with proteins (2.5-10 μg) in the reaction buffer (500 μL, 0.5 mM MgCl2, 20 mM HEPES (pH 7.2)) at 22° C. for intervals of 36 and 66 min. The reactions were quenched by adding 5 M NaOH (20 μL), followed by snap freezing in a dry ice/acetone slush bath, and lyophilized. The sample preparation for ^31P NMR measurement was as described above for the cell-lysate experiment except that the pH was adjusted by the addition of 12 μL 6 M HCl before NMR spectra were collected.

Rabbit HINT1 = target: T2, Rabbit HINT1 (Oryctolagus cuniculus, UniProt P80912); experiment: 31P NMR phosphoramidase assay of purified protein; assay type: biochemical; settings: 10 mM substrate, pH 7.2, 22° C.
T2 construct: made in house; host or cells: E. coli hinT deletion mutant
Description: as §1, §2, §3

E. coli hinT-DHFR = target: T3, E. coli hinT-DHFR (Escherichia coli, UniProt P0ABQ4+P0ACE7); experiment: 31P NMR phosphoramidase assay of purified protein; assay type: biochemical; settings: 10 mM substrate, pH 7.2, 22° C.
T3 construct: made in house; host or cells: E. coli Tuner(DE3)pLacI
Description: as §1, §2, §3

Human Hint1-DHFR = target: T4, Human Hint1-DHFR (UniProt P0ABQ4+P49773); experiment: 31P NMR phosphoramidase assay of purified protein; assay type: biochemical; settings: 10 mM substrate, pH 7.2, 22° C.
T4 construct: made in house; host or cells: E. coli (following the procedure for the hinT plasmid)
Description: as §1, §2, §3

hHINT1 [1] = target: T5, hHINT1 (Homo sapiens, UniProt P49773); experiment: 31P NMR phosphoramidase assay of purified protein; assay type: biochemical; settings: 10 mM substrate, pH 7.2, 22° C.
Description: as §1, §2, §3

ycfF = target: T6, ycfF (Escherichia coli, UniProt P0ACE7); experiment: Catalytic activity (velocity) of cloned, purified phosphoramidase with AMPNH2; assay type: biochemical, E. coli; settings: pH 7.2, room temperature, 10 mM AMPNH2
T6 construct: made in house
Description: The putative bacterial phosphoramidase was cloned and over-expressed as described for the human homologue, and found to be a nucleoside phosphoramidase.
(§4) Velocity of the enzymes was determined at pH 7.2 at room temperature in the presence of 10 mM AMPNH2.

hHINT1 [2] = target: T5, hHINT1; experiment: as above; assay type: biochemical
Excerpt: The enzyme responsible for hydrolysis of AZT amino acid phosphoramidates was cloned and characterized. After construction of a cDNA library from peripheral blood mononuclear cells (PBMCs) in T7Select10-3b phage, the phage display technique was employed to isolate the enzyme by affinity chromatography. After three rounds of phage selection and ampilification with an affinity column constructed from the L-tryptophan carbamate, DNA from ten selected plaques was amplified by PCR and sequenced. […] Hint1 is a member of the HIT protein superfamily, which consists of a recently identified adenosine 5′-monophosphoramide hydrolases from rabbit and yeast.
as §4

[3] = target: T7, BL21 Star (WT) cell lysates (Escherichia coli, UniProt P0ACE7); experiment: 31P NMR phosphoramidase activity in cell lysates; assay type: biochemical, E. coli; settings: for Specific activity: 0.5 mg protein
T7 construct: endogenous in cells; host or cells: E. coli BL21 Star
Description: as §1
as §2, with “Phosphate free cell lysates (0.75 mg total protein) were incubated with 5 mM AMP-NH2 in 0.5 ml reaction buffer (0.5 mM MgCl2, 20 mM HEPES (pH 7.2)) at 37° C. for intervals of 15 min, 30 min, and 12 h.” left out
To determine if E. coli hinT is solely responsible of the observed lysates' phosphoramidase activity, a mutant strain, BB1, in which the hinT gene was replace with the chloramphenicol resistance marker, was constructed. The phosphoramidase activities of the wild-type E. coli BL21 Star strain and the mutant strain lysates were determined (Table 3). […] (Table 2). Therefore, the adenosine phosphoramidase activity observed for E. coli cell lysates appears to be totally dependent on hinT.

Nc1ncnc2c1ncn2[C@@H]1O[C@H](COP(N)(=O)O)[C@@H](O)[C@H]1O [AMP-NH2, Adenosine 5′-monophosphoramidate]
Specific activity (E. coli hinT): 526 ± 27 nmol nmol^−1 min^−1
Specific activity (Rabbit HINT1): 70.0 ± 1.3 nmol nmol^−1 min^−1
Specific activity (E. coli hinT-DHFR): 753 ± 2 nmol nmol^−1 min^−1
Specific activity (Human Hint1-DHFR): 388 ± 45 nmol nmol^−1 min^−1
Specific activity (hHINT1 [1]): 196 ± 33 nmol nmol^−1 min^−1
Velocity (ycfF): 14.19 nmol/µg/min
Hydrolysis by over-expressed, purified human Hint1 (hHINT1 [2]): efficiently hydrolyze
Velocity (hHINT1 [2]; pH 7.2, room temperature, 10 mM AMPNH2): 5.46 nmol/µg/min
Specific activity of BL21 Star WT cell lysates [3]: 20.1 (±7.7) nmol mg^−1 min^−1
Specific activity ([3]; 30 min): 15.5 nmol/mg/min
Specific activity ([3]; 70 min): 26.4 nmol/mg/min
Average specific activity ([3]; average): 20.95 ± 7.71 nmol/mg/min
